Where “and” joins values, the source holds several entries; their conditions need not be identical. Equal values may be shown once. Entries after “also recorded” stand apart in the source; their conditions may differ. Read-outs that look alike come from different tables or passages of the source.
Legend:
[1] = biological target: T1, human A3 adenosine receptor (Homo sapiens, UniProt P0DMS8); assay: Competition binding vs 125I-ABA, membranes of CHO cells stably expressing HS-21a (human A3 adenosine receptor); details: for Ki: competition with 125I-ABA, CHO membranes, human A3
T1 construct: clone HS-21a contained the complete open reading frame corresponding to the human homolog of the rat A3 adenosine receptor; expressed in transfected cells; host or cells: CHO cells, stably transfected (pCMV5-A3; pSVL and pREP vectors are also described)
T1 sequence (P0DMS8 1-318): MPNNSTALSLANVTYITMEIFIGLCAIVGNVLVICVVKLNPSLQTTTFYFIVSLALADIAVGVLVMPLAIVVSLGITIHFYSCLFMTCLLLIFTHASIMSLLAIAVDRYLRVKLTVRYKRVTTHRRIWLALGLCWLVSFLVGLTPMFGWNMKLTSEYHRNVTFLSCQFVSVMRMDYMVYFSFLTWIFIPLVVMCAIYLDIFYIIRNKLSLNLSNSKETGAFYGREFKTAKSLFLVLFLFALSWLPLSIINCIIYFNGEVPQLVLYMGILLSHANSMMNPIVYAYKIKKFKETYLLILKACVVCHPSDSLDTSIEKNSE
Description: Pellets were resuspended in 5 mM Hepes, pH 7.4/5 mM MgCl2 /0.1 mM benzamidine/0.1 mM PMSF at a protein concentration of 1-2 mg/mL and were incubated with adenosine deaminase (Boehringer Mannheim), 2 U/mL at 37° C. for 20 minutes. […] The assay was terminated by rapid filtration and three washes with ice-cold binding buffer on a Skatron harvester equipped with a receptor binding filtermat (Skatron Instruments, INC). […] Nonspecific binding was measured in the presence of 1 μM I-ABA. […] Binding data were analyzed and competition curves were constructed by use of the nonlinear regression curve fitting program Graph PAD InPlot, Version 3.0 (Graph Pad Software, San Diego).

[2] = biological target: T1, human A3 adenosine receptor; details: antagonist potency in cAMP assay; disclosed by Salvatore et al.; cited from earlier work
[3] = system: human adenosine receptors (all subtypes); details: cited from earlier work
[4] = biological target: T1, human A3 adenosine receptor; details: potencies disclosed by Salvatore et al.; cited from earlier work
[5] = system: rat A3 adenosine receptor; details: reported in literature; cited from earlier work
[6] = biological target: T1, human A3 adenosine receptor; assay: Saturation binding of 125I-ABA to membranes of CHO cells stably expressing HS-21a (human A3 adenosine receptor); details: for prevention of specific binding of 125I-ABA: 1 mM nonradioactive I-ABA (so in the source) or 400 μM NECA
[7] = system: sheep A3 adenosine receptor; details: CHO cells; cited from earlier work
[8] = biological target: T1, human A3 adenosine receptor; assay: Inhibition of forskolin-stimulated cAMP accumulation, CHO cells stably expressing HS-21a (human A3 adenosine receptor); assay type: cell-based
Description: (§1) Determinations were made on stably transfected CHO cells in suspension as described (Linden et al., (1993) Mol. Pharm. 44:524-532). Supernatants (500 μL) were acetylated and acetylcyclic AMP was measured by automated radioimmunoassay (Hamilton, B. R. and Smith, D. O. (1991) J. Physiol. (Lond.) 432, 327-341). Antagonist dissociation constants were estimated from pA2 values as described by Schild (1957) Pharm. Rev. 9, 242-246).
(§2) The ability of the HS-21a receptor stably expressed in CHO cells to couple to the cAMP regulatory system was measured using adenosine as an agonist. […] In the absence of forskolin, adenosine had no effect on the cAMP levels. In non-transfected CHO cells, adenosine had no effect on cAMP levels when measured with or without forskolin treatment.

[9] = system: cytokine activated eosinophils; assay: Treatment of cytokine activated eosinophils (hypersensitivity to adenosine, degranulation, effector function); assay type: cell-based
[10] = biological target: sheep A3 adenosine receptor; details: cited from earlier work
[11] = Radioligand binding to membranes from CHO cells (non-transfected / non-specific)
[12] = system: eosinophils; assay: Induction of eosinophil activation in animals; details: in vivo
[13] = system: non-transfected CHO cells; assay: cAMP levels in non-transfected CHO cells; assay type: cell-based; details: with or without forskolin
Description: as §1, §2

[14] = system: activated mast cells; details: cited from earlier work
[15] = system: asthmatics; details: cited from earlier work; for bronchoconstriction in asthmatics: not nonasthmatics
[16] = system: A2b adenosine receptor transcript, human eosinophils; assay: A2b adenosine receptor transcript expression (RT-PCR) in GM-CSF stimulated eosinophils; assay type: cell-based; details: GM-CSF (150 pM, 16 hours)
Description: (§3) Eosinophils and neutrophils (80-99% purity) were purified from human peripheral blood by an immunomagnetic procedure described by Hansel et al. (1991) J. Immunol. Methods 145: 105-110. Isolated cells (2-2.6×10^6 cells/mL) were cultured in the presence of 150 pM human recombinant granulocyte-macrophage colony stimulating factor, GM-CSF (Calbiochem, San Diego, Calif.) for 16 hours in RPMI with 10% fetal calf serum, at 37° C. in 5% CO2. Total RNA was extracted by the guanidinium isothiocyanate method (Chirgwin, J. M., et al, (1979) Biochemistry 18:5294-5299) from approximately 1.3×10^7 human eosinophils (+) or (-) GM-CSF stimulation. […]
(§4) Human adenosine receptor subtype transcript expression was determined using the polymerase chain reaction (PCR). […]
(§5) Ten μl of each PCR amplification reaction was elecrophoresed on a 1.4% agarose gel and alkaline blotted to Zeta-Probe GT membranes according to the manufacturer's protocol (BIO-RAD, Hercules, Calif.). […] The presence of A2a, A2b and A3 receptor PCR products were detected from normal and GM-CSF treated eosinophils.
(§6) PCR reaction products were quantitated using a Molecular Dynamics Phosphorimager and ImageQuant software. […] Quantitation of GAPDH was used to correct message level differences in the (+) or (-) GM-CSF stimulated human eosinophils. […]

[17] = system: A3 adenosine receptor transcript, human eosinophils; assay: A3 adenosine receptor transcript expression (RT-PCR) in GM-CSF stimulated eosinophils; assay type: cell-based; details: GM-CSF (150 pM, 16 hours)
Description: as §3, §4, §5, §6

[18] = system: A2a adenosine receptor transcript, human eosinophils; assay: A2a adenosine receptor transcript expression (RT-PCR) in GM-CSF stimulated eosinophils; assay type: cell-based
Description: as §3, §4, §5, §6

[19] = system: A1 adenosine receptor transcript, human eosinophils; assay: A1 adenosine receptor transcript expression (RT-PCR) in GM-CSF stimulated eosinophils; assay type: cell-based
Description: as §3, §4, §5, §6

[20] = 125I-ABA, HS-21a stable CHO cell membranes

## CCCn1c(=O)c2[nH]c(-c3ccc(C=CC(=O)O)cc3)nc2n(CCC)c1=O [BW-A1433, 1,3-dipropyl-8-(4-acrylate)phenylxanthine]
[1]
  Ki: 55 nM
[2]
  cAMP pKi: 7.0
[3]
  blockade of human adenosine receptor subtypes: blocked
[4]
  BINDING pKi: 7.26

## CCCn1c(=O)c2[nH]c(C3CCCC3)nc2n(CCC)c1=O [DPCPX, 1,3-dipropyl-8-cyclopentylxanthine]
[3]
  blockade of human adenosine receptor subtypes: blocked
[5]
  binding to rat A3 receptor: not to bind

## Nc1nc2c(ncn2[C@@H]2O[C@H](COP(=O)(O)OP(=O)(O)OP(O)(O)=S)[C@@H](O)[C@H]2O)c(=O)[nH]1 [GTPγS, guanosine 5'-O-3-thiotriphosphate]
[6]; read-out: reduction of specific binding of 125I-ABA
  inhibition at 10 µM: 56%

## Nc1ccc(CNc2ncnc3c2ncn3[C@@H]2O[C@H](CO)[C@@H](O)[C@H]2O)cc1I [I-ABA]
[7]
  agonist type for lowering cyclic AMP: full
[8]; CHO cells, human A3
  inhibition of forskolin-stimulated cyclic AMP accumulation compared with NECA and other agonists (PIA and CPA): only about half as much inhibition
[8]; CHO cells, human receptor
  agonist type for lowering cyclic AMP: partial agonist
[8]; NECA in presence of I-ABA
  shift of NECA dose response curve to lower cyclic AMP: fight-shifted
[6]
  prevention of specific binding of 125I-ABA: prevented

## CCCn1c(=O)c2[nH]c(-c3ccc(OCC(=O)O)cc3)nc2n(Cc2ccc(N)c(I)c2)c1=O [I-ABOPX, 3-(3-iodo-4-aminobenzyl)-8-(4-oxyacetate)phenyl-1-propylxanthine]
[1]
  Ki: 18 nM
[1]; in words
  affinity for human A3 receptor: highest affinity antagonist yet reported for A3 adenosine receptors
[9]
  hypersensitivity to adenosine, eosinophil degranulation and effector function: blockade of this hypersensitivity and inhibition of eosinophil degranulation and effector function
[2]
  cAMP pKi: 8.13
[10]
  Ki: 2 nM

## CCNC(=O)[C@H]1O[C@@H](n2cnc3c(N)ncnc32)[C@H](O)[C@@H]1O [NECA, N-ethylcarboxamidoadenosine]
[6]
  prevention of specific binding of 125I-ABA: prevented

## CCCn1c(=O)c2[nH]c(-c3ccc(OCC(=O)NCCN)cc3)nc2n(CCC)c1=O [XAC, xanthine amine cogener]
[3]
  blockade of human adenosine receptor subtypes: blocked
[5]
  binding to rat A3 receptor: not to bind

## Nc1ccc(CNc2ncnc3c2ncn3[C@@H]2O[C@H](CO)[C@@H](O)[C@H]2O)cc1[125I] [^125 I-ABA, N^6-(4-amino-3-^125 iodobenzyl)adenosine]
[11]; 125I-ABA
  specific binding to non-transfected CHO cell membranes: No specific binding
[6]; [20]
  Bmax: 258 fmol/mg protein
  Hill coefficient: 0.99
[6]; 125I-ABA, HS-21a stable CHO cell membranes, read-out: dissociation constant
  Kd: 10 nM

## Nc1ccc(CCNc2ncnc3c2ncn3[C@@H]2O[C@H](CO)[C@@H](O)[C@H]2O)cc1[125I] [^125 I-APNEA, N^6-2-(4-amino-3-^125 iodophenyl)ethyladenosine]
[11]; 125I-APNEA, preliminary experiments
  non-specific binding to CHO cell membranes: high non-specific

## Nc1ncnc2c1ncn2[C@@H]1O[C@H](CO)[C@@H](O)[C@H]1O [adenosine]
[12]
  eosinophil activation in animals: induce eosinophil activation
[8]; CHO, read-out: inhibition of forskolin-stimulated increase in cAMP
  inhibition at 10 µM: 30%
[8]; HS-21a CHO cells, no forskolin
  effect on cAMP levels in absence of forskolin: no effect
[13]
  effect on cAMP levels in non-transfected CHO cells: no effect
[14]
  release of histamine from activated mast cells: potentiate
[15]; listed as Adenosine
  bronchoconstriction in asthmatics: induces bronchoconstriction in asthmatics but not in normal individuals; also recorded: produces bronchoconstriction in asthmatics but not in nonasthmatics
[15]
  bronchoconstriction in asthmatics: produces bronchoconstriction

## Cn1c(=O)c2[nH]cnc2n(C)c1=O [theophylline]
[15]
  antagonism of adenosine-induced bronchoconstriction: antagonized

## GM-CSF: human recombinant granulocyte-macrophage colony stimulating factor, GM-CSF (Calbiochem, San Diego, Calif.)
[16]
  up-regulation of A2b transcripts: ~3 fold and 3 to 4 fold
[17]
  up-regulation of A3 transcripts: ~10 fold
[18]
  A2a transcript / message level change: no change; also recorded: remained unchanged
[19]
  A1 transcript expression: no A1 products were observed; also recorded: remained unchanged

Source: patent publication US5646156A, “Inhibition of eosinophil activation through A3 adenosine receptor antagonism” (Merck & Co., Inc., priority 1994, dated 1997)
